In PMC8836179, “Transport Turnover Rates for Human OCT2 and MATE1 Expressed in Chinese Hamster Ovary Cells” (International Journal of Molecular Sciences, 2022):
“And” between values parts separate entries of the source, which are not always exact repeats. Equal values may be shown once.

How the values were obtained:
hMATE1 = target: T1, hMATE1 (Homo sapiens, UniProt Q96FL8); assay: MATE1-mediated substrate uptake kinetics and turnover rate in stably expressing CHO cells; type: in vitro ADME; conditions: for Kt (Ktapp, apparent Michaelis constant) / Jmax (maximum rate of mediated substrate transport): CHO cells stably expressing MATE1, 60-s uptakes, outwardly-directed H+ gradient (ammonia pulse), mean ± SD; for TOR (turnover rate): Jmax divided by cell surface MATE1 abundance (21.9 ± 18.1 fmol cm^−2), CHO cells
T1 construct: expressed in transfected cells; vector pcDNA5/FRT/V5-His TOPO
T1 sequence (Q96FL8 1-570): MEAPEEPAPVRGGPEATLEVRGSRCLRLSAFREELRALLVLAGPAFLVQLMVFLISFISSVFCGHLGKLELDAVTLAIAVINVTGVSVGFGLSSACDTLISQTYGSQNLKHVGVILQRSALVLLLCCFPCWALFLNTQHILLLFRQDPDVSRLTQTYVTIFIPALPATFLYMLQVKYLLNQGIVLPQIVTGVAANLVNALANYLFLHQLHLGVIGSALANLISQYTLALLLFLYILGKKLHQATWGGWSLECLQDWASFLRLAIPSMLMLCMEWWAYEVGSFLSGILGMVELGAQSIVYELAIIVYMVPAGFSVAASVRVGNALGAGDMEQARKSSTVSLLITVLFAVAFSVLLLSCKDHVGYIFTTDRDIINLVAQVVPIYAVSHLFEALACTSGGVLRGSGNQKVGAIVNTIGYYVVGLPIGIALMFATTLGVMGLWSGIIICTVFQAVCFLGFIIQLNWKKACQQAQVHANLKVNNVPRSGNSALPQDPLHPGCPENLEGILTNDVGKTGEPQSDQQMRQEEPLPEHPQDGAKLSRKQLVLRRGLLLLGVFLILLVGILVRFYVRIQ
Description: (§1) The calculation of TOR values involved dividing the maximal rates of substrate transport (Jmax) by the number of cell-surface-expressed transporters (Table 1).
(§2) Chinese hamster ovary (CHO) cells with a single integrated Flp-In recombination site were obtained from Invitrogen (Carlsbad, CA, USA). […] Cells were passaged every 3–4 days and maintained at 37 °C in a humidified environment with 5% CO2. Continued expression of MATE1 and OCT2 in these cell lines was maintained using hygromycin (200 µg/mL; Invitrogen, Carlsbad, CA) selection pressure; continued expression of the Flp-In recombination site in wild-type (WT; non-transporter expressing) CHO cells was maintained using Zeocin (100 µg/mL; Invitrogen) selection pressure. When seeded into 96-well plates (Greiner; VWR Intl., Arlington Heights, IL, USA) for transport assays, cells were grown to confluence in antibiotic-free medium.
(§3) Cells were seeded in 96 well plates with 200 µL of cell media containing 550,000 cells/mL or 275,000 cells/mL, and experiments were performed 24 or 48 h later, respectively. To begin an experiment, media was aspirated and the wells were washed for three cycles over 12 s with 300 µL of room temperature (~23 °C) Waymouth Buffer (WB; 135 mM NaCl, 13 mM HEPES, 2.5 mM CaCl2·2H2O, 1.2 mM MgCl2, 0.8 mM MgSO4·7H2O, 5 mM KCl, and 28 mM D-glucose; pH 7.4) using an automatic microplate washer (Model 405, BioTek, Winooski, VT, USA). For studies of OCT2-mediated transport, uptake was initiated by addition of 60 µL of WB containing radiolabeled substrate and other compounds, as needed. For studies of MATE1-mediated transport, the cells (MATE1-expressing and control cells) were exposed to an ammonia pulse method that we previously used to elevate cytoplasmic [H^+] to a level (~6.0 pH; [61]) that effectively saturates the cytoplasmic face of the exchanger with H^+ [51]. Briefly, cells were preincubated for 20 min (room temp) in buffer containing 20 mM NH4Cl (the first step in establishing an outwardly-directed H^+ gradient; [60]). Plates were then placed in the automatic fluid aspirator/dispenser and rinsed/aspirated three times with room temperature WB (pH 7.4), and transport was initiated by aspirating this medium and replacing it with 60 µL of an NH4Cl-free medium containing labeled substrate, thereby, establishing a trans H^+ gradient, qualitatively similar to the conditions that support MATE1-mediated transport in renal proximal tubules. For all experiments, transport buffers were added using a VIAFLO 96-well multichannel pipet (Integra Biosciences, Hudson, NH, USA). At specified time intervals, transport was terminated by rinsing with three cycles of cold WB (300 µL). Following rinsing and final aspiration, 200 µL of scintillation cocktail (Microscint 20, Perkin-Elmer, Waltham, MA, USA) was added to each well. The plates were sealed (Topseal-A, Perkin Elmer), and after sitting for at least two hours, accumulated radioactivity was determined in a six-channel multiwell scintillation counter (Wallac Trilux 1450 Microbeta, Perkin-Elmer).
(§4) The method described here is a minor modification of that described by Pelis et al..

hOCT2 = target: T2, hOCT2 (Homo sapiens, UniProt O15244); assay: OCT2-mediated substrate uptake kinetics and turnover rate in stably expressing CHO cells; type: in vitro ADME; conditions: for Jmax (maximum rate of mediated substrate transport) / Kt (Ktapp, apparent Michaelis constant): CHO cells stably expressing OCT2, 60-s uptakes, pH 7.4, mean ± SD; for TOR (turnover rate): Jmax divided by cell surface OCT2 abundance (154 ± 70.7 fmol cm^−2), CHO cells
T2 construct: expressed in transfected cells; vector pcDNA5/FRT/V5-His TOPO
T2 sequence (O15244 1-555): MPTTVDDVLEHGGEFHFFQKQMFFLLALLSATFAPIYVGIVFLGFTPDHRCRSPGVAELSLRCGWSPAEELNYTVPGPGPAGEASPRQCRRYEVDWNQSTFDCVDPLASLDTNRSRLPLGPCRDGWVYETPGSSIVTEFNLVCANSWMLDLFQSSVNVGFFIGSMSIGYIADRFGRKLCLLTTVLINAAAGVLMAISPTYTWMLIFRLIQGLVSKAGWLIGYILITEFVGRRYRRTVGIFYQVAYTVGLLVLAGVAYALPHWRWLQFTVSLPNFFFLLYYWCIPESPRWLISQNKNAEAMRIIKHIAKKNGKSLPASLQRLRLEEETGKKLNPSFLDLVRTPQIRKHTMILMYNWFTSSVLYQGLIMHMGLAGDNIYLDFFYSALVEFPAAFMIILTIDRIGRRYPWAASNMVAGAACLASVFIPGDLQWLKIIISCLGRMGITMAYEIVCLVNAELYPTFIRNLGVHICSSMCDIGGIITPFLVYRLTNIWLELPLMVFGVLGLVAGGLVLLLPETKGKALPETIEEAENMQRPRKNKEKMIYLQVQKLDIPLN
Description: as §1, §2, §3, §4

Row | Compound | Kt (Ktapp, apparent Michaelis constant) (hMATE1) | Kt (Ktapp, apparent Michaelis constant) (hMATE1; listed as atenolol) | Jmax (maximum rate of mediated substrate transport) (hMATE1) | TOR (turnover rate) (hMATE1) | Jmax (maximum rate of mediated substrate transport) (hOCT2) | Kt (Ktapp, apparent Michaelis constant) (hOCT2) | TOR (turnover rate) (hOCT2) | Jmax (maximum rate of mediated substrate transport) (hMATE1; listed as metformin) | TOR (turnover rate) (hMATE1; listed as metformin) | Jmax (maximum rate of mediated substrate transport) (hOCT2; listed as metformin) | Kt (Ktapp, apparent Michaelis constant) (hOCT2; listed as metformin)
1 | CC(C)NCC(O)COc1ccc(CC(N)=O)cc1 (stereo not drawn) [Atenolol, atenolol] | 354 ± 96 µM and 354 ± 95.9 µM | 354 ± 96 µM | – | – | – | – | – | – | – | – | –
2 | C[n+]1ccc(-c2ccccc2)cc1 [MPP, 1-Methyl-4-phenylpyridinium] | 66 ± 6.8 µM | – | 241 ± 85 pmol cm^−2 min^−1 and 241 ± 84.9 (n = 4) pmol cm^−2 min^−1 | 297 ± 201 s⁻¹ | 59 ± 6.6 pmol cm^−2 min^−1 and 58.5 ± 6.6 pmol cm^−2 min^−1 and 58 pmol cm^−2 min^−1 and 58.5 ± 6.6 (n = 3) pmol cm^−2 min^−1 | 17.5 ± 2.1 µM | 7.1 ± 2.4 s⁻¹ | – | – | – | –
3 | CN(C)C(=N)N=C(N)N [Metformin, metformin] | 664 ± 302 µM | – | 1802 ± 1147 pmol cm^−2 min^−1 and 1802 ± 1147 (n = 4) pmol cm^−2 min^−1 | 1894 ± 1282 s⁻¹ | 509 ± 39 pmol cm^−2 min^−1 and 509 ± 39.0 (n = 2) pmol cm^−2 min^−1 | 427 ± 48 µM and 427 ± 48.0 µM | 70 s⁻¹ | 1802 ± 1147 pmol cm^−2 min^−1 | ~ 1900 s^−1 | 509 ± 39 pmol cm^−2 min^−1 and 509 pmol cm^−2 min^−1 | 427 ± 48 µM
